Measured values: paper PMC12512767, “Discovery of new aurone derivatives as submicromolar CK2 inhibitors” (Journal of Enzyme Inhibition and Medicinal Chemistry, 2025)

Columns and labels:
[1] = molecular target: T1, recombinant human protein kinase CK2 alpha subunit (Homo sapiens, UniProt P68400); test: Luminescent (Kinase-Glo) CK2 screening assay; format: biochemical; conditions: inhibitor 1 μM; ATP 10 µM, peptide substrate RRRDDDSDDD 200 µM; 30 °C, 40 min; triplicate; LI = luciferase inhibition (luminescence lower than control)
T1 sequence (P68400 whole entry): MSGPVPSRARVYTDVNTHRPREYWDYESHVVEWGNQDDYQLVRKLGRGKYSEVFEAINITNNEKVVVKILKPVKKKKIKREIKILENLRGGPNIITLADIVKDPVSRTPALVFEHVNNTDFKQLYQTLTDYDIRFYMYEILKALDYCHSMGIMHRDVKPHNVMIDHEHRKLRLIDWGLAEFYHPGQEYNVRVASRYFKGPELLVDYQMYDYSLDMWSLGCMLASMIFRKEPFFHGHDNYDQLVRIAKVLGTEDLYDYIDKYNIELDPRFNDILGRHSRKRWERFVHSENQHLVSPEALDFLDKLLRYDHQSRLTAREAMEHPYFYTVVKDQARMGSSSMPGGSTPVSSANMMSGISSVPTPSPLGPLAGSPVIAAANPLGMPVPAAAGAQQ
Procedure: (§1) The study was conducted using recombinant human protein kinase CK2 alpha subunit, obtained using plasmid pZW6 (Addgene, USA, catalogue number 27086), ATP (Sigma-Aldrich, USA, catalogue number A2383) and peptide substrate RRRDDDSDDD (GenScript, USA, catalogue number RP10318). Tris(hydroxymethyl)aminomethane hydrochloride (Tris-HCl) (Sigma-Aldrich, USA, catalogue number 10812846001), KCl (Sigma-Aldrich, USA, catalogue number P3911) and MgCl2 (Sigma-Aldrich, USA, catalogue number 208337) were used to prepare the reaction buffer. Dimethyl sulfoxide (DMSO) (Sigma-Aldrich, USA, catalogue number 472301) was used as a solvent for the compounds. Luminescent assays were performed using Kinase-Glo® kit (Promega, USA, catalogue number V6711). Aurone derivatives were synthesised following the procedure[20] described earlier starting from the benzo[e]benzofuran-1-one intermediate obtained in a known manner. The structures of tested aurone derivatives are given in the Results section.
(§2) The reaction mixture volume was 50 μl. The reaction buffer contained 2 mM Tris HCl, 5 mM KCl and 1 mM MgCl2, pH 7.5. The concentration of CK2 alpha subunit was 2 mg/l per sample in control and experimental samples. The reaction mixtures contained 0.5 μl of inhibitor solution in DMSO per sample (final inhibitor concentrations were different in luminescent and CE assays) or 0.5 μl of pure DMSO in control and calibration samples. The samples were incubated at 30 °C for 40 min.
The luminescent assay measured sample luminescence following the addition of the Kinase-Glo luciferase mixture, with the signal reflecting the remaining ATP content. The final ATP concentration indicates the extent of peptide phosphorylation: higher ATP levels correspond to lower peptide phosphorylation. This method was considered as a rapid and straightforward approach for screening a large number of compounds without quantitatively determining their activity.
ATP and peptide substrate were initially present at concentrations of 10 µM and 200 µM, respectively. Calibration samples, which lacked the enzyme, represented the initial ATP concentration. The inhibitor concentration in experimental samples was 1 µM. Measurements were performed using a LuMate 4400 microplate reader (Awareness Technology, USA). Luminescence was recorded after adding 50 µL of the Kinase-Glo luminescent mixture to each sample. In order to simplify the screening process, no signal–concentration calibration curve was constructed for precise ATP quantification. Instead, luminescence values of experimental and control samples were compared directly with those of enzyme-free calibration samples, which reflected the initial ATP level. The percentage of inhibition was determined by the formula: I=100∗(Me−Mc)/(Mo−Mc)
I is the inhibition in percent, Me, Mc and Mo are the luminescence of the experimental, calibration and control samples, respectively. The experiments were performed in triplicate, after which the obtained values were averaged.
This effect may result from the inhibition of luciferase activity. The decrease in luminescence reflects not increased ATP consumption by CK2 during peptide phosphorylation, but rather reduced oxyluciferin formation – the luminescent product – caused by luciferase inhibition by the test compound. The manufacturer of the Kinase-Glo kit, as well as practical studies of protein kinases claim the possibility of this effect[23]^,[24]. […] Furthermore, some compounds with potential luciferase inhibitory activity could have produced false-negative results.
This deviation was most pronounced in samples with low absolute luminescence values (and consequently, low inhibition).

[2] = molecular target: T1, recombinant human protein kinase CK2 alpha subunit; test: Capillary electrophoresis (CE) CK2 assay; format: biochemical; conditions: ATP 100 µM, peptide substrate 100 µM; 30 °C, 40 min; triplicate; Hill fit
Procedure: as §1, §2
The initial concentrations of ATP and peptide substrate were 100 µM. The reaction was stopped by adding 100 μl of 20 mM EDTA disodium salt. All IC50 studies were performed in triplicate. Mean conversion values for each concentration were used for construction of the conversion-versus-concentration curves and IC50 determination.
The conversion was determined by the formula: C=100∗P/P+N
C is the conversion in percent, P is the peak area of the phosphorylated product, and N is the peak area of the substrate.
Inhibition was calculated using the formula: I=100∗ Co−Ce/Co
I – inhibition in percent, Со – conversion in control sample, Се – conversion in experimental sample.
For the tested compounds, inhibition curves were plotted as a function of concentration and fitted using the Hill equation: y=x^n/k^n+x^n y – inhibition in percent, x – inhibitor concentration, k – IC50 value, n – Hill coefficient.
Inhibition curves were built using at least four data points, with additional concentrations tested for some compounds to refine the curve’s shape. The IC50 value was determined from the fitted curve as the concentration producing 50% inhibition.
All electrophoretic separations were performed with a capillary electrophoresis system Сapel-105M (Lumex). Fused silica (Lumex) of a total length of 75 cm (effective length 65 cm) with inner diameter 50 μm was used. Before use, fused silica was washed for 5 min with 0.1 M HCl solution, then 5 min with distilled water, then 5 min with 0.1 M NaOH solution, again for 5 min with distilled water and for 5 min with background electrolyte (BGE).
A 150 mM orthophosphoric acid (pH 1.2) was used as BGE. Before electrophoretic separation, 350 μl of deionised water was added to the samples. Samples were introduced hydrodynamically at 900 mbar*s. The electrophoresis voltage was 25 kV. Electrophoretic separation was carried out in positive polarity. Detection conducted at a wavelength of 192 nm. Instrument control, data collection and integration were performed with Elforun (Lumex) software.

Which “I (%) (inhibition)” value [1] does the source give for `O=C(O)c1ccc(C=C2Oc3cc(O)ccc3C2=O)cc1` [Compound 4] here?
Its value is 41 ± 9%.

For `O=C(O)COc1ccc2c(c1)OC(=Cc1ccc(C(=O)O)cc1)C2=O` [Compound 12], which “I (%) (inhibition)” value [1] is on record?
Its value is under 25%.

How did the “I (%) (inhibition)” value [1] turn out when `O=C1C(=Cc2ccc(O)c(Br)c2)Oc2c1ccc1ccccc21` [Compound 34] was run?
Its value is under 25%.

Which “I (%) (inhibition)” value [1] does the source give for `COc1ccc2c(c1)OC(=Cc1ccccc1O)C2=O` [Compound 7] here?
Its value is under 25%.

For `O=C1C(=Cc2ccc(O)cc2)Oc2c1ccc1ccccc21` [Compound 23], which “I (%) (inhibition)” value [1] is on record?
Its value is under 25%.

For `O=C1C(=Cc2ccc(O)c(Cl)c2)Oc2c1ccc1ccccc21` [Compound 32], which “I (%) (inhibition)” value [1] is on record?
Its value is 68 ± 15%.

`O=C1C(=Cc2ccc(O)c(Br)c2)Oc2ccc3ccccc3c21` [BFO27] was tested. Which “I (%) (inhibition)” value [1] did it give?
Its value is 86 ± 1%.

And the IC50 [2]?
The IC50 was 13 nM.

How did the “I (%) (inhibition)” value [1] turn out when `O=C1C(=Cc2ccc(O)c(F)c2)Oc2ccc(Br)cc21` [Compound 15] was run?
The value was under 25%.

What does the source list for `COc1cc(C=C2Oc3ccc4ccccc4c3C2=O)cc([N+](=O)[O-])c1O` [BFO26]?
I (%) (inhibition) [1]: 90 ± 7%; IC50 [2]: 130 nM

Which “I (%) (inhibition)” value [1] does the source give for `Cc1cc2c(c(C)c1Cl)C(=O)C(=Cc1ccc(O)c(F)c1)O2` [Compound 21] here?
The value was under 25%.

With `COc1ccc2c(c1)OC(=Cc1cccc(O)c1)C2=O` [Compound 8] as the compound, how does the “I (%) (inhibition)” value [1] read?
Its value is under 25%.

For `O=C1C(=Cc2ccccc2O)Oc2ccc(O)cc21` [Compound 13], which “I (%) (inhibition)” value [1] is on record?
Its value is under 25%.

For `O=C(O)c1ccc(C=C2Oc3ccc4ccccc4c3C2=O)cc1` [Compound 39], which “I (%) (inhibition)” value [1] is on record?
Its value is 69 ± 24%.

For `O=C1C(=Cc2ccc(O)c(F)c2)Oc2ccc(Cl)cc21` [Compound 16], which “I (%) (inhibition)” value [1] is on record?
Its value is under 25%.

With `Cc1cc(C=C2Oc3ccc(Br)cc3C2=O)ccc1O` [Compound 14] as the compound, how does the “I (%) (inhibition)” value [1] read?
Its value is under 25%.

How did the “I (%) (inhibition)” value [1] turn out when `O=C(O)c1cc(C=C2Oc3c(ccc4ccccc34)C2=O)ccc1O` [Compound 31] was run?
Its value is under 25%.

How did the “I (%) (inhibition)” value [1] turn out when `O=C1C(=Cc2ccc(O)c(O)c2)Oc2ccc3ccccc3c21` [Compound 41] was run?
Its value is under 25%.

Which “I (%) (inhibition)” value [1] does the source give for `O=C1/C(=C/c2ccccc2O)Oc2cc(O)ccc21` [Compound 3] here?
Its value is under 25%.

`O=C(O)c1ccc(C=C2Oc3c(ccc4ccccc34)C2=O)cc1` [Compound 22] was tested. Which “I (%) (inhibition)” value [1] did it give?
Its value is under 25%.

`Cc1cc(C=C2Oc3c(Cl)ccc(Cl)c3C2=O)ccc1O` [Compound 18] was tested. Which “I (%) (inhibition)” value [1] did it give?
Its value is under 25%.

For `Cc1cc(C=C2Oc3ccc(Cl)cc3C2=O)ccc1O` [Compound 17], which “I (%) (inhibition)” value [1] is on record?
The value was under 25%.

With `O=C1C(=Cc2cccc(O)c2)Oc2ccc3ccccc3c21` [Compound 40] as the compound, how does the “I (%) (inhibition)” value [1] read?
Its value is under 25%.

Which “I (%) (inhibition)” value [1] does the source give for `O=C1C(=Cc2cc(Cl)c(O)c(Cl)c2)Oc2ccc3ccccc3c21` [Compound 51] here?
Its value is 78 ± 22%.

`COc1ccc2c(c1)OC(=Cc1ccc(O)c(OC)c1)C2=O` [Compound 10] was tested. Which “I (%) (inhibition)” value [1] did it give?
The value was 27 ± 19%.

For `O=C1/C(=C/c2cc(Br)c(O)c(Br)c2)Oc2ccc3ccccc3c21` [Compound 54], which “I (%) (inhibition)” value [1] is on record?
Its value is 69 ± 1%.

How did the “I (%) (inhibition)” value [1] turn out when `O=C1C(=Cc2ccc(O)c([N+](=O)[O-])c2)Oc2c1ccc1ccccc21` [BFO22] was run?
The value was 80 ± 13%.

What about the IC50 [2] of the same compound?
Its IC50 is 680 nM.

With `O=C(O)c1cc(C=C2Oc3ccc4ccccc4c3C2=O)ccc1O` [Compound 48] as the compound, how does the “I (%) (inhibition)” value [1] read?
Its value is 32 ± 24%.

Which “I (%) (inhibition)” value [1] does the source give for `O=C1C(=Cc2ccc(O)c(F)c2)Oc2c(Cl)ccc(Cl)c21` [Compound 19] here?
Its value is 61 ± 15%.

Which “I (%) (inhibition)” value [1] does the source give for `O=C1C(=Cc2ccc(O)cc2)Oc2ccc3ccccc3c21` [Compound 38] here?
Its value is under 25%.

With `CCOc1cc(/C=C2\Oc3cc(O)ccc3C2=O)ccc1O` [Compound 6] as the compound, how does the “I (%) (inhibition)” value [1] read?
Its value is under 25%.

With `Cc1cc(C=C2Oc3ccc4ccccc4c3C2=O)ccc1O` [Compound 45] as the compound, how does the “I (%) (inhibition)” value [1] read?
Its value is under 25%.

With `O=C1C(=Cc2ccc(O)c(Cl)c2)Oc2ccc3ccccc3c21` [BFO25] as the compound, how does the “I (%) (inhibition)” value [1] read?
Its value is 88 ± 11%.

And the IC50 [2]?
The IC50 was 3 nM.

With `COc1cc(C=C2Oc3c(ccc4ccccc34)C2=O)ccc1O` [Compound 28] as the compound, how does the “I (%) (inhibition)” value [1] read?
The value was under 25%.

With `O=C(O)COc1ccc2c(c1)OC(=Cc1cccc(F)c1)C2=O` [Compound 11] as the compound, how does the “I (%) (inhibition)” value [1] read?
Its value is under 25%.

How did the “I (%) (inhibition)” value [1] turn out when `COc1cccc(C=C2Oc3ccccc3C2=O)c1O` [Compound 2] was run?
The value was under 25%.

Which “I (%) (inhibition)” value [1] does the source give for `O=C1C(=Cc2ccc(O)c(F)c2)Oc2c1ccc1ccccc21` [Compound 36] here?
The value was under 25%.

For `Cc1cc(/C=C2\Oc3cc(C)c(Cl)c(C)c3C2=O)ccc1O` [Compound 20], which “I (%) (inhibition)” value [1] is on record?
The value was under 25%.

How did the “I (%) (inhibition)” value [1] turn out when `O=C1C(=Cc2cc(Br)c(O)c(Br)c2)Oc2c1ccc1ccccc21` [Compound 35] was run?
Its value is 39 ± 14%.

How did the “I (%) (inhibition)” value [1] turn out when `COc1cc(C=C2Oc3ccc4ccccc4c3C2=O)cc(Cl)c1O` [Compound 52] was run?
The value was 46 ± 15%.

Which “I (%) (inhibition)” value [1] does the source give for `O=C1/C(=C/c2ccc(O)c(F)c2)Oc2ccccc21` [Compound 1] here?
The value was 36 ± 12%.

Which “I (%) (inhibition)” value [1] does the source give for `COc1cc(C=C2Oc3cc(O)ccc3C2=O)cc(Cl)c1O` [Compound 5] here?
The value was 48 ± 21%.

For `COc1ccc2c(c1)OC(=Cc1ccc(O)cc1)C2=O` [Compound 9], which “I (%) (inhibition)” value [1] is on record?
Its value is under 25%.

For `O=C1C(=Cc2cc(Cl)c(O)c(Cl)c2)Oc2c1ccc1ccccc21` [Compound 33], which “I (%) (inhibition)” value [1] is on record?
The value was under 25%.

What does the source list for `O=C1C(=Cc2ccc(O)c(F)c2)Oc2ccc3ccccc3c21` [BFO24]?
I (%) (inhibition) [1]: 95 ± 23%; IC50 [2]: 220 nM

What does the source list for `COc1cc(C=C2Oc3ccc4ccccc4c3C2=O)ccc1O` [BFO23]?
I (%) (inhibition) [1]: 85 ± 14%; IC50 [2]: 130 nM
